Data as given in PMC12305494, “Discovery of PXR Antagonist MI891 and PXR Degrader MI1013 and Their Roles in Hepatic Gene Regulation” (Journal of Medicinal Chemistry, 2025).

Experiments:
Experiment in all cases: Off-target kinase panel
Assay type in all cases: biochemical
[1] = molecular target: T1, PI3 Kinase (p110b/p85a)(h) (Homo sapiens, UniProt P42338); details: MI891 @ 1 µM
T1 construct: purchased Eurofins (Millipore) KinaseProfiler, inferred from the naming style
Experimental: (§1) To evaluate the selectivity of MI891, an off-target profiling study was performed using a panel of 58 kinases.

MST1(h) = molecular target: T2, MST1(h) (Homo sapiens, UniProt Q13043); details: MI891 @ 1 µM
T2 construct: purchased Eurofins (Millipore) KinaseProfiler, inferred from the naming style
Experimental: as §1

SAPK2a(h) = molecular target: T3, SAPK2a(h) (Homo sapiens, UniProt Q16539); details: MI891 @ 1 µM
T3 construct: purchased Eurofins (Millipore) KinaseProfiler, inferred from the naming style
Experimental: as §1

MEK1(h) = molecular target: T4, MEK1(h) (Homo sapiens, UniProt Q02750); details: MI891 @ 1 µM
T4 construct: purchased Eurofins (Millipore) KinaseProfiler, inferred from the naming style
Experimental: as §1

CHK1(h) = CHK1(h) (Homo sapiens, UniProt O14757); details: MI891 @ 1 µM
Experimental: as §1

CDK6/cyclinD3(h) = CDK6/cyclinD3(h) (Homo sapiens, UniProt Q00534); details: MI891 @ 1 µM
Experimental: as §1

MAPKAP-K2(h) = molecular target: T5, MAPKAP-K2(h) (Homo sapiens, UniProt P49137); details: MI891 @ 1 µM
T5 construct: purchased Eurofins (Millipore) KinaseProfiler, inferred from the naming style
Experimental: as §1

MLK1(h) = molecular target: T6, MLK1(h) (Homo sapiens, UniProt P80192); details: MI891 @ 1 µM
T6 construct: purchased Eurofins (Millipore) KinaseProfiler, inferred from the naming style
Experimental: as §1

Aurora-A(h) = Aurora-A(h) (Homo sapiens, UniProt O14965); details: MI891 @ 1 µM
Experimental: as §1

IKKα(h) = IKKα(h) (Homo sapiens, UniProt O15111); details: MI891 @ 1 µM
Experimental: as §1

[2] = molecular target: T7, PI3 Kinase (p110d/p85a)(h) (Homo sapiens, UniProt O00329); details: MI891 @ 1 µM
T7 construct: purchased Eurofins (Millipore) KinaseProfiler, inferred from the naming style
Experimental: as §1

p70S6K(h) = molecular target: T8, p70S6K(h) (Homo sapiens, UniProt P23443); details: MI891 @ 1 µM
T8 construct: purchased Eurofins (Millipore) KinaseProfiler, inferred from the naming style
Experimental: as §1

CDK7/cyclinH/MAT1(h) = CDK7/cyclinH/MAT1(h) (Homo sapiens, UniProt P50613); details: MI891 @ 1 µM
Experimental: as §1

IGF-1R(h) = IGF-1R(h) (Homo sapiens, UniProt P08069); details: MI891 @ 1 µM
Experimental: as §1

CDK2/cyclinA(h) = CDK2/cyclinA(h) (Homo sapiens, UniProt P24941); details: MI891 @ 1 µM
Experimental: as §1

EphB4(h) = EphB4(h) (Homo sapiens, UniProt P54760); details: MI891 @ 1 µM
Experimental: as §1

PDGFRβ(h) = molecular target: T9, PDGFRβ(h) (Homo sapiens, UniProt P09619); details: MI891 @ 1 µM
T9 construct: purchased Eurofins (Millipore) KinaseProfiler, inferred from the naming style
Experimental: as §1

PKA(h) = molecular target: T10, PKA(h) (Homo sapiens, UniProt P17612); details: MI891 @ 1 µM
T10 construct: purchased Eurofins (Millipore) KinaseProfiler, inferred from the naming style
Experimental: as §1

ASK1(h) = ASK1(h) (Homo sapiens, UniProt Q99683); details: MI891 @ 1 µM
Experimental: as §1

eEF-2K(h) = eEF-2K(h) (Homo sapiens, UniProt O00418); details: MI891 @ 1 µM
Experimental: as §1

Fyn(h) = Fyn(h) (Homo sapiens, UniProt P06241); details: MI891 @ 1 µM
Experimental: as §1

PKG1α(h) = molecular target: T11, PKG1α(h) (Homo sapiens, UniProt Q13976); details: MI891 @ 1 µM
T11 construct: purchased Eurofins (Millipore) KinaseProfiler, inferred from the naming style
Experimental: as §1

MSK2(h) = molecular target: T12, MSK2(h) (Homo sapiens, UniProt O75676); details: MI891 @ 1 µM
T12 construct: purchased Eurofins (Millipore) KinaseProfiler, inferred from the naming style
Experimental: as §1

Rsk1(h) = molecular target: T13, Rsk1(h) (Homo sapiens, UniProt Q15418); details: MI891 @ 1 µM
T13 construct: purchased Eurofins (Millipore) KinaseProfiler, inferred from the naming style
Experimental: as §1

mTOR(h) = molecular target: T14, mTOR(h) (Homo sapiens, UniProt P42345); details: MI891 @ 1 µM
T14 construct: purchased Eurofins (Millipore) KinaseProfiler, inferred from the naming style
Experimental: as §1

DRAK1(h) = DRAK1(h) (Homo sapiens, UniProt Q9UEE5); details: MI891 @ 1 µM
Experimental: as §1

CK1γ1(h) = CK1γ1(h) (Homo sapiens, UniProt Q9HCP0); details: MI891 @ 1 µM
Experimental: as §1

LOK(h) = molecular target: T15, LOK(h) (Homo sapiens, UniProt O94804); details: MI891 @ 1 µM
T15 construct: purchased Eurofins (Millipore) KinaseProfiler, inferred from the naming style
Experimental: as §1

PKBα(h) = molecular target: T16, PKBα(h) (Homo sapiens, UniProt P31749); details: MI891 @ 1 µM
T16 construct: purchased Eurofins (Millipore) KinaseProfiler, inferred from the naming style
Experimental: as §1

AMPKα1(h) = AMPKα1(h) (Homo sapiens, UniProt Q13131); details: MI891 @ 1 µM
Experimental: as §1

Lyn(h) = molecular target: T17, Lyn(h) (Homo sapiens, UniProt P07948); details: MI891 @ 1 µM
T17 construct: purchased Eurofins (Millipore) KinaseProfiler, inferred from the naming style
Experimental: as §1

PKCα(h) = molecular target: T18, PKCα(h) (Homo sapiens, UniProt P17252); details: MI891 @ 1 µM
T18 construct: purchased Eurofins (Millipore) KinaseProfiler, inferred from the naming style
Experimental: as §1

KDR(h) = molecular target: T19, KDR(h) (Homo sapiens, UniProt P35968); details: MI891 @ 1 µM
T19 construct: purchased Eurofins (Millipore) KinaseProfiler, inferred from the naming style
Experimental: as §1

IRAK4(h) = molecular target: T20, IRAK4(h) (Homo sapiens, UniProt Q9NWZ3); details: MI891 @ 1 µM
T20 construct: purchased Eurofins (Millipore) KinaseProfiler, inferred from the naming style
Experimental: as §1

ROCK-I(h) = molecular target: T21, ROCK-I(h) (Homo sapiens, UniProt Q13464); details: MI891 @ 1 µM
T21 construct: purchased Eurofins (Millipore) KinaseProfiler, inferred from the naming style
Experimental: as §1

PAK2(h) = molecular target: T22, PAK2(h) (Homo sapiens, UniProt Q13177); details: MI891 @ 1 µM
T22 construct: purchased Eurofins (Millipore) KinaseProfiler, inferred from the naming style
Experimental: as §1

Pim-1(h) = molecular target: T23, Pim-1(h) (Homo sapiens, UniProt P11309)
T23 construct: purchased Eurofins (Millipore) KinaseProfiler, inferred from the naming style
Experimental: as §1

PI3 Kinase (p120g)(h) = molecular target: T24, PI3 Kinase (p120g)(h) (Homo sapiens, UniProt P48736); details: MI891 @ 1 µM
T24 construct: purchased Eurofins (Millipore) KinaseProfiler, inferred from the naming style
Experimental: as §1

TAK1(h) = molecular target: T25, TAK1(h) (Homo sapiens, UniProt O43318); details: MI891 @ 1 µM
T25 construct: purchased Eurofins (Millipore) KinaseProfiler, inferred from the naming style
Experimental: as §1

NEK2(h) = molecular target: T26, NEK2(h) (Homo sapiens, UniProt P51955); details: MI891 @ 1 µM
T26 construct: purchased Eurofins (Millipore) KinaseProfiler, inferred from the naming style
Experimental: as §1

ALK(h) = ALK(h) (Homo sapiens, UniProt Q9UM73); details: MI891 @ 1 µM
Experimental: as §1

T23 sequence (P11309 whole entry): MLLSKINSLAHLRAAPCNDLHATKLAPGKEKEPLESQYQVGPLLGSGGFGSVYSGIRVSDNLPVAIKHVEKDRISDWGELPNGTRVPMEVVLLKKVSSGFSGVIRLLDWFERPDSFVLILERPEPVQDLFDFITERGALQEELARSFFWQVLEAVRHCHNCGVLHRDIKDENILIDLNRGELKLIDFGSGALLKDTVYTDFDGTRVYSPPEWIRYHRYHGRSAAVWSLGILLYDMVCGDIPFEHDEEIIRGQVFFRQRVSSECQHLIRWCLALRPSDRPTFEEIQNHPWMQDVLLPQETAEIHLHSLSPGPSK
T20 sequence (Q9NWZ3 whole entry): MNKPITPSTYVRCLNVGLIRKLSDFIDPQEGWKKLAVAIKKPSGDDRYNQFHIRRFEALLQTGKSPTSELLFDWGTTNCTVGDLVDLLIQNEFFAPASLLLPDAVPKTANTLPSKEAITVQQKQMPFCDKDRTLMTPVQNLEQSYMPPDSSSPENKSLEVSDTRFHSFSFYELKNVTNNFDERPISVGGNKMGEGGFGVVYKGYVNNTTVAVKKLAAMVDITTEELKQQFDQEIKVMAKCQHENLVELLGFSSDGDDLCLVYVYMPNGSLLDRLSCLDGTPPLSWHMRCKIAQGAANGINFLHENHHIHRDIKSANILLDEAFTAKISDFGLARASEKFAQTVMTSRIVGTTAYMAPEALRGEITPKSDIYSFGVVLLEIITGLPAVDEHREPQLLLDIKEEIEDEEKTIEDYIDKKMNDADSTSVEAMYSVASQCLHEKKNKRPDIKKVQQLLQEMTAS
T17 sequence (P07948 whole entry): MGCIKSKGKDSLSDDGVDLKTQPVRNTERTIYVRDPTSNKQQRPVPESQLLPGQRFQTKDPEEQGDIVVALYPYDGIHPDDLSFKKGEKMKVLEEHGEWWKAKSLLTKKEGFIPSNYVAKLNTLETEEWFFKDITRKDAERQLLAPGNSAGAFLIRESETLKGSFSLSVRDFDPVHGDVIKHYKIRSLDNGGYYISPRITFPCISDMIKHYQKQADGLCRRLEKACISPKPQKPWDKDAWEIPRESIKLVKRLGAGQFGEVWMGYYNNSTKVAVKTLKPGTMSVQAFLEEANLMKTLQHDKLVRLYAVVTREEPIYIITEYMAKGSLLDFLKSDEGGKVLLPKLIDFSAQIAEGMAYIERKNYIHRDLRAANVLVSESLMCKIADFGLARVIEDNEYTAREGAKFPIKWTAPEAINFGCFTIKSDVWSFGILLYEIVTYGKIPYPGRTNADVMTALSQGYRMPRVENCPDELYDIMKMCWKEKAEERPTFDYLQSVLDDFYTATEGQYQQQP
CDK6/cyclinD3(h), sequence (Q00534 whole entry): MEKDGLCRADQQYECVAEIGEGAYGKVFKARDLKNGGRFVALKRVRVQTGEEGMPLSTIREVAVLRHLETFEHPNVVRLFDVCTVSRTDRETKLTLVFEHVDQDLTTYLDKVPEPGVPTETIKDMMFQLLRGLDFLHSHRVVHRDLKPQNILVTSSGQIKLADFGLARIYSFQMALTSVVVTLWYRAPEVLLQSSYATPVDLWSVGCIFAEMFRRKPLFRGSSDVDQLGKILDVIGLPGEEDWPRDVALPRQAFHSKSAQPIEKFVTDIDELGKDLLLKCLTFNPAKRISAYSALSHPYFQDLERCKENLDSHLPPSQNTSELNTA
CDK6/cyclinD3(h), sequence (P30281 whole entry partner): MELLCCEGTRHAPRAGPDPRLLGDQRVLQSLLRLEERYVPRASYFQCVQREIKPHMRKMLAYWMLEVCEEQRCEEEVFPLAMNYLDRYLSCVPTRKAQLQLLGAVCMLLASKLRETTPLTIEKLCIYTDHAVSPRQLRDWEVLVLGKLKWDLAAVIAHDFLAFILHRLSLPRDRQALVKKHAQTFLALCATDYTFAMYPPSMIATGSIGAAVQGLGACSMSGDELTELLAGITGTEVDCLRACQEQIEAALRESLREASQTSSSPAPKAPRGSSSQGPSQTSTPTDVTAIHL
IGF-1R(h), sequence (P08069 31-1367): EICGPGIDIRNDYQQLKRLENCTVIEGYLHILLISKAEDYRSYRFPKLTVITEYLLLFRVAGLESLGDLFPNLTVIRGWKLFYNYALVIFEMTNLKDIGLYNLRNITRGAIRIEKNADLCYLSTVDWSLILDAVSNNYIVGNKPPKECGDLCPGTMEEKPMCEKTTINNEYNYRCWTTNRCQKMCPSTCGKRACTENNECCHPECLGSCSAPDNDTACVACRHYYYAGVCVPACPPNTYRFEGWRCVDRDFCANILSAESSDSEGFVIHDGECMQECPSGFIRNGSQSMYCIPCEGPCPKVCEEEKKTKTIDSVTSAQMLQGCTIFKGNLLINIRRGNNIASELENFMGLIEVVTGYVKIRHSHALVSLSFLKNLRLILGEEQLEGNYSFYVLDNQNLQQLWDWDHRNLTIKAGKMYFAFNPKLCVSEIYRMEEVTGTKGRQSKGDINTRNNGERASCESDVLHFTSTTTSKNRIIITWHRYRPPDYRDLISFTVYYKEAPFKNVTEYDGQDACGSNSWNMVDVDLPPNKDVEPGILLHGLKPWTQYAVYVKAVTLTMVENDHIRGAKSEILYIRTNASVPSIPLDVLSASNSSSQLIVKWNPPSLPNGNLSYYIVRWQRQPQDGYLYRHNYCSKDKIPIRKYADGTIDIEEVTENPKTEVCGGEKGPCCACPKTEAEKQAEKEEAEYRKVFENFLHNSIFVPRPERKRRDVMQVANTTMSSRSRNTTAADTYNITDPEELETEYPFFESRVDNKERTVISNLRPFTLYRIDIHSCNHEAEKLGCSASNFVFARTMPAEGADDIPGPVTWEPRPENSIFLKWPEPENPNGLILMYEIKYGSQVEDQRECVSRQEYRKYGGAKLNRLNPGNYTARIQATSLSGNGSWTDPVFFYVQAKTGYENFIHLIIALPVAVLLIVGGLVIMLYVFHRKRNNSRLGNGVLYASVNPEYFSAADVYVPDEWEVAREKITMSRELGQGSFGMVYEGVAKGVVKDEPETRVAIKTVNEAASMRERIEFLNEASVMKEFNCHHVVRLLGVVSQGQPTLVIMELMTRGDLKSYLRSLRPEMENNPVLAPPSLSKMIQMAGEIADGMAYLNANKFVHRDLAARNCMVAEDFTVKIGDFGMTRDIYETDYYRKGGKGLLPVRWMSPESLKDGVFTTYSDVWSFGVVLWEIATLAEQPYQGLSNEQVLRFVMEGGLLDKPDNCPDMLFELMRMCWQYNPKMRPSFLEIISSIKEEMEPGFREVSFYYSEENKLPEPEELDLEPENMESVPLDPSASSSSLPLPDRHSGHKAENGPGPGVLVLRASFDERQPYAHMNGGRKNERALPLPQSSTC
T11 sequence (Q13976 whole entry): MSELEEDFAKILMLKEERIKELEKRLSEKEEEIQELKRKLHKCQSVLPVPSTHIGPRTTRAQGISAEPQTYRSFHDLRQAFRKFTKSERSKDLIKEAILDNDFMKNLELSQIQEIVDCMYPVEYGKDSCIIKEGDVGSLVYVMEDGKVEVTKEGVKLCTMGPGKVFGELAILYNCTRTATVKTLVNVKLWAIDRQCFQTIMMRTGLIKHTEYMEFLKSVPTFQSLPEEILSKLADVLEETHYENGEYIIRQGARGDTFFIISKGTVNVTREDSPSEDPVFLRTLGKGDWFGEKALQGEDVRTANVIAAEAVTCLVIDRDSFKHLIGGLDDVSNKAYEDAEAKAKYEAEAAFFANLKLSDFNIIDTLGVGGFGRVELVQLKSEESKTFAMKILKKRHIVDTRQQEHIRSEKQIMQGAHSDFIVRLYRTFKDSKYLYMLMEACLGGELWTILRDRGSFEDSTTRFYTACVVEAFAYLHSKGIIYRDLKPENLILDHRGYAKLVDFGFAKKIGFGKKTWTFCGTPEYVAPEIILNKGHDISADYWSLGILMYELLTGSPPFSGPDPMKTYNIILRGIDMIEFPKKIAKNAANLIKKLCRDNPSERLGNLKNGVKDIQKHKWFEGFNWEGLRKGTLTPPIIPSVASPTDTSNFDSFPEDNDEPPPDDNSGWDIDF
CK1γ1(h), sequence (Q9HCP0 whole entry): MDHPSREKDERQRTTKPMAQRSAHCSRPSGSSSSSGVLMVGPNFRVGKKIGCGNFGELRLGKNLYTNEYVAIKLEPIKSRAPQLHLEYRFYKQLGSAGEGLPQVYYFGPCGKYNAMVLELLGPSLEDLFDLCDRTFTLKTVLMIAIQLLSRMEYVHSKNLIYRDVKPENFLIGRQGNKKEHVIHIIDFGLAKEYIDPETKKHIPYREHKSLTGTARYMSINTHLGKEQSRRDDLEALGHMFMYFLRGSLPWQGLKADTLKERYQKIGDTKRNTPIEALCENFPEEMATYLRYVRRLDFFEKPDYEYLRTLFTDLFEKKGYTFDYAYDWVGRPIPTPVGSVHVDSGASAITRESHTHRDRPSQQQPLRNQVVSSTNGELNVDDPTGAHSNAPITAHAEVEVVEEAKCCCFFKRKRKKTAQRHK
Aurora-A(h), sequence (O14965 whole entry): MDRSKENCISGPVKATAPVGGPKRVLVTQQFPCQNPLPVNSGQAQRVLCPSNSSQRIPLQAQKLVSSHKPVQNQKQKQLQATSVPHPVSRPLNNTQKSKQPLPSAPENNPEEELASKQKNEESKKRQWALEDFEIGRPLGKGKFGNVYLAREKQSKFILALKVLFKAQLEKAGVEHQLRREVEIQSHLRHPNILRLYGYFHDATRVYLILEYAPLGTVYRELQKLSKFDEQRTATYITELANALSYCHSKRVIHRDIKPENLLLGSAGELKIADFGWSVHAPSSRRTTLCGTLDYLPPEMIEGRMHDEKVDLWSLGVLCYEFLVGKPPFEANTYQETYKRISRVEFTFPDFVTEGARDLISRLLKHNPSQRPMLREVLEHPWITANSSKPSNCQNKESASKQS

activity at 1 µM [1]: 100%
activity at 1 µM (MST1(h)): 94%
activity at 1 µM (SAPK2a(h)): 99%
activity at 1 µM (MEK1(h)): 94%
activity at 1 µM (CHK1(h)): 93%
activity at 1 µM (CDK6/cyclinD3(h)): 92%
activity at 1 µM (MAPKAP-K2(h)): 101%
activity at 1 µM (MLK1(h)): 104%
activity at 1 µM (Aurora-A(h)): 81%
activity at 1 µM (IKKα(h)): 104%
activity at 1 µM [2]: 98%
activity at 1 µM (p70S6K(h)): 105%
activity at 1 µM (CDK7/cyclinH/MAT1(h)): 94%
activity at 1 µM (IGF-1R(h)): 99%
activity at 1 µM (CDK2/cyclinA(h)): 106%
activity at 1 µM (EphB4(h)): 97%
activity at 1 µM (PDGFRβ(h)): 86%
activity at 1 µM (PKA(h)): 108%
activity at 1 µM (ASK1(h)): 91%
activity at 1 µM (eEF-2K(h)): 112%
activity at 1 µM (Fyn(h)): 81%
activity at 1 µM (PKG1α(h)): 85%
activity at 1 µM (MSK2(h)): 110%
activity at 1 µM (Rsk1(h)): 129%
activity at 1 µM (mTOR(h)): 96%
activity at 1 µM (DRAK1(h)): 105%
activity at 1 µM (CK1γ1(h)): 100%
activity at 1 µM (LOK(h)): 94%
activity at 1 µM (PKBα(h)): 100%
activity at 1 µM (AMPKα1(h)): 102%
activity at 1 µM (Lyn(h)): 88%
activity at 1 µM (PKCα(h)): 97%
activity at 1 µM (KDR(h)): 86%
activity at 1 µM (IRAK4(h)): 112%
activity at 1 µM (ROCK-I(h)): 97%
activity at 1 µM (PAK2(h)): 84%
activity at 1 µM (Pim-1(h); MI891 @ 1 µM): 53%
inhibition at 1 µM (Pim-1(h); at 1 μM): 53%
activity at 1 µM (PI3 Kinase (p120g)(h)): 102%
activity at 1 µM (TAK1(h)): 90%
activity at 1 µM (NEK2(h)): 103%
activity at 1 µM (ALK(h)): 76%
Compound: NC(=O)c1cc(Cn2cc(-c3c(-c4ccc(Cl)cc4)nc4c(F)cc(F)cn34)nn2)ccc1Cl [Compound 11, 2-Chloro-5-((4-(2-(4-chlorophenyl)-6,8-difluoroimidazo[1,2-a]pyridin-3-yl)-1H-1,2,3-triazol-1-yl)methyl)-benzamide]
